These are literature values, as cited in patent US20130287890A1, “INHIBITOR OF THE PRODUCTION OF ADVANCED GLYCATION END PRODUCTS” (UENO FINE CHEMICALS INDUSTRY, LTD., priority 2012, published 2013).

Molecules are shown by their SMILES.

For the series the following is noted: background art; cited from earlier work.

Turning to `N=C(N)NN` [Aminoguanidine, aminoguanidine], the adverse drug reactions entry is “hepatic impairment”.
